From the supplement of paper PMC10307832

Legend:
Assay in all cases: relative viability (nuclei count vs DMSO), 5 days (fraction); higher = more cells survive
[1] = compound: C1COCCN1CC2=CC(=O)C(=CO2)OCCCCCSC3=C4C=CC(=CC4=NC=C3)C(F)(F)F [EHT 1864]
Procedure, shortened: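 Viability here means nuclei in treated wells divided by nuclei in vehicle wells, reported as the median across plates. Only plates with control CV below 25% and at least one doubling passed. Lung cancer cell lines in 1536-well plates were exposed to five √10-spaced library-drug doses for 5 days and counted from 4× Hoechst images in MetaXpress.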

[2] = compound: C1COCCN1CC2=CC(=O)C(=CO2)OCCCCCSC3=C4C=CC(=CC4=NC=C3)C(F)(F)F [EHT 1864] + CC(=O)Nc1cccc(-n2c(=O)n(C3CC3)c(=O)c3c(Nc4ccc(I)cc4F)n(C)c(=O)c(C)c32)c1 [Trametinib] (partner 0.02 µM)
Procedure, shortened: (§1)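 Values are medians from duplicate plates. Each reflects relative viability, defined as the nuclei count of treated wells over that of vehicle wells. Lung cancer cell lines in 1536-well plates were pin-tool dosed one day after seeding with one drug alone or with a fixed anchor-drug dose plus five library-drug doses (not always all listed) in √10 steps, then fixed, stained and imaged at 4× after 5 days.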

[3] = compound: C1COCCN1CC2=CC(=O)C(=CO2)OCCCCCSC3=C4C=CC(=CC4=NC=C3)C(F)(F)F [EHT 1864] + N=C(N)NC(=N)NCCc1ccccc1 [Phenformin] (partner 250 µM)
Procedure, shortened: as §1

[4] = compound: C1COCCN1CC2=CC(=O)C(=CO2)OCCCCCSC3=C4C=CC(=CC4=NC=C3)C(F)(F)F [EHT 1864] + O=C(c1cc(Cc2n[nH]c(=O)c3ccccc23)ccc1F)N1CCN(C(=O)C2CC2)CC1 [Olaparib] (partner 8 µM)
Procedure, shortened: as §1

Row | Cell Line | relative viability ([1]; 0.04 µM) | relative viability ([1]; 0.1265 µM) | relative viability ([1]; 0.4 µM) | relative viability ([1]; 1.265 µM) | relative viability ([1]; 4 µM) | relative viability ([2]; first compound 0.04 µM) | relative viability ([2]; first compound 0.1265 µM) | relative viability ([2]; first compound 0.4 µM) | relative viability ([2]; first compound 1.265 µM) | relative viability ([2]; first compound 4 µM) | relative viability ([3]; first compound 0.04 µM) | relative viability ([3]; first compound 0.4 µM) | relative viability ([3]; first compound 1.265 µM) | relative viability ([3]; first compound 4 µM) | relative viability ([4]; first compound 0.04 µM) | relative viability ([4]; first compound 0.1265 µM) | relative viability ([4]; first compound 0.4 µM) | relative viability ([4]; first compound 1.265 µM) | relative viability ([4]; first compound 4 µM) | relative viability ([3]; first compound 0.1265 µM)
1 | LK-2 | 1.04 | 0.793 | 0.979 | 1.04 | 0.929 | 0.673 | 0.48 | 0.719 | 0.596 | 1.02 | 0.539 | 0.591 | 0.369 | 0.373 | 0.518 | 0.608 | 0.608 | 0.551 | 0.68 | –
2 | NCI-H661 | 1.01 | 1.01 | 0.975 | 0.941 | 0.926 | 0.527 | 0.53 | 0.616 | 0.565 | 0.498 | 0.339 | 0.301 | 0.302 | 0.269 | 0.799 | 0.685 | 0.684 | 0.606 | 0.567 | 0.273
3 | NCI-H2342 | 0.778 | 0.856 | 0.803 | 0.929 | 1.03 | 0.71 | 0.681 | 0.759 | 0.874 | 0.935 | 0.546 | 0.621 | 0.523 | 0.678 | 0.402 | 0.409 | 0.474 | 0.39 | 0.451 | 0.52
4 | HCC-366 | 1.01 | 0.804 | 1.01 | 1.07 | 1.06 | 0.38 | 0.3 | 0.318 | 0.413 | 0.285 | 0.616 | 0.593 | 0.511 | 0.585 | 0.391 | 0.325 | 0.34 | 0.347 | 0.304 | 0.538
5 | HOP-62 | 1.05 | – | 1 | 1.04 | 1.07 | 0.4 | – | 0.362 | 0.38 | 0.415 | 0.665 | 0.615 | 0.654 | 0.718 | 0.448 | – | 0.435 | 0.438 | 0.453 | –
6 | NCI-H2170 | 0.904 | 0.889 | 0.996 | 1.06 | 1.01 | 0.893 | 0.779 | 0.911 | 0.886 | 0.911 | 0.442 | 0.392 | 0.368 | 0.37 | 0.595 | 0.628 | 0.61 | 0.581 | 0.547 | 0.349
7 | SW 1573 | 1.03 | 0.817 | 1.01 | 0.931 | 0.902 | 0.622 | – | 0.437 | 0.398 | 0.444 | 0.436 | 0.347 | 0.334 | 0.382 | 0.499 | 0.515 | 0.451 | 0.472 | 0.423 | 0.34
8 | LU99A | 0.883 | 0.758 | 0.968 | 1 | 0.893 | 0.531 | 0.428 | 0.487 | 0.452 | 0.565 | 0.811 | 0.821 | 0.857 | 0.808 | 0.26 | 0.262 | 0.25 | 0.284 | 0.274 | 0.557
9 | NCI-H647 | 1.01 | 0.775 | 1.03 | 1.02 | 0.908 | 0.437 | 0.353 | 0.604 | 0.429 | 0.464 | 0.589 | 0.561 | 0.6 | 0.545 | 0.493 | 0.503 | 0.539 | 0.312 | 0.613 | 0.432
10 | A-427 | 0.975 | 0.922 | 1.03 | 0.956 | 0.882 | 0.698 | 0.837 | 0.758 | 0.812 | 0.736 | 0.343 | 0.282 | 0.285 | 0.265 | 0.768 | 0.734 | 0.778 | 0.678 | 0.713 | 0.309
11 | COR-L 105 | 0.893 | 0.869 | 1.05 | 0.975 | 0.945 | 0.443 | 0.395 | 0.513 | 0.462 | 0.508 | 0.535 | 0.602 | 0.536 | 0.535 | 0.792 | 0.692 | 0.777 | 0.648 | 0.624 | 0.427
12 | EBC-1 | 0.942 | 0.865 | 0.961 | 0.931 | 0.924 | – | – | – | – | – | – | – | – | – | 0.74 | 0.689 | 0.671 | 0.696 | 0.574 | –
13 | NCI-H1648 | 1.2 | 0.735 | 0.954 | 1.02 | 1.43 | 0.545 | – | 0.44 | 0.4 | 0.607 | – | – | – | – | 0.765 | – | 0.759 | 0.769 | 0.984 | –
14 | ABC-1 | 1.13 | 0.964 | 0.946 | 0.7 | 0.627 | – | – | – | – | – | 0.24 | 0.208 | 0.273 | 0.218 | 1.24 | 0.695 | 0.861 | 0.629 | 0.762 | 0.258
15 | NCI-H1563 | 0.992 | 0.887 | 0.959 | 0.896 | 0.882 | – | – | – | – | – | 0.672 | 0.675 | 0.677 | 0.685 | – | – | – | – | – | 0.64
16 | NCI-H1299 | 1.01 | 0.976 | 0.964 | 0.979 | 0.956 | – | – | – | – | – | – | – | – | – | 0.96 | 0.939 | 0.964 | 0.913 | 0.893 | –
17 | A549 | 0.88 | 0.937 | 0.921 | 0.948 | 0.883 | – | – | – | – | – | 0.267 | 0.186 | 0.0995 | 0.168 | 0.302 | 0.299 | 0.368 | 0.246 | 0.428 | 0.14
18 | IA-LM | 0.925 | – | 0.908 | 0.764 | 0.855 | – | – | – | – | – | – | – | – | – | 0.926 | 0.842 | 0.81 | 0.62 | 0.618 | –
19 | Calu-6 | 1 | 0.93 | 1.01 | 0.991 | 0.955 | – | – | – | – | – | – | – | – | – | 0.615 | 0.563 | 0.594 | 0.507 | 0.502 | –
